Experimental data from the supplement of paper PMC8967900.

Experiments:
Test in all cases: selective drug sensitivity score (sDSS, relative to normal bone marrow) (sDSS (score)); higher = more potent and effective on the cell line relative to normal bone marrow cells
Conditions in all cases: 72 h
[1] = tested on: P12-ICHIKAWA
[2] = tested on: HAL-01
[3] = tested on: COG-LL-402h
[4] = tested on: MN-60
[5] = tested on: DND-41
[6] = tested on: RCH-ACV
[7] = tested on: COG-LL-355h
[8] = tested on: KOPN-8
[9] = tested on: KASUMI-9
[10] = tested on: COG-LL-332h
[11] = tested on: MHH-CALL-2
[12] = tested on: ALL-SIL
[13] = tested on: MOLT-16
[14] = tested on: NALM-16
[15] = tested on: MHH-CALL-3
[16] = tested on: MOLT-4
[17] = tested on: TMD5
[18] = tested on: TANOUE
[19] = tested on: REH
[20] = tested on: RPMI-8402
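Also: ALL cell lines in 384-well plates, five doses spanning 10,000-fold, each plate scaled between vehicle and 100 µmol/L benzalkonium chloride controls, sDSS an adapted area-under-curve metric.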

SMILES | selective drug sensitivity score [1] | selective drug sensitivity score [2] | selective drug sensitivity score [3] | selective drug sensitivity score [4] | selective drug sensitivity score [5] | selective drug sensitivity score [6] | selective drug sensitivity score [7] | selective drug sensitivity score [8] | selective drug sensitivity score [9] | selective drug sensitivity score [10] | selective drug sensitivity score [11] | selective drug sensitivity score [12] | selective drug sensitivity score [13] | selective drug sensitivity score [14] | selective drug sensitivity score [15] | selective drug sensitivity score [16] | selective drug sensitivity score [17] | selective drug sensitivity score [18] | selective drug sensitivity score [19] | selective drug sensitivity score [20]
N#CCNC(=O)c1ccc(-c2ccnc(Nc3ccc(N4CCOCC4)cc3)n2)cc1 [Momelotinib] (top concentration 10000 nM) | -0.12 | -5.22 | -0.12 | -7.22 | -0.32 | 5.78 | -0.92 | -1.62 | -0.12 | -0.82 | -2.22 | -1.82 | 0.28 | -8.32 | -9.42 | -4.72 | -4.72 | -9.62 | -4.82 | -0.82
Sc1ncnc2nc[nH]c12 [Mercaptopurine] (top concentration 10000 nM) | 9.6 | 12.4 | 6.6 | 6.6 | 11.1 | 14.2 | 0.5 | 14.9 | 15.4 | 15.5 | 13.4 | 14.8 | 16.9 | 7.9 | 0 | 8.7 | 0 | 7.2 | 17 | 9.2
CCn1c(C(=O)N(C2CC2)C2CC2)cc2c3c(ncn3C)c(Nc3cc(C)n(C)n3)nc21 (top concentration 10000 nM) | -4.36 | 1.04 | -4.36 | -4.36 | -3.86 | -3.06 | 1.14 | -4.36 | 0.04 | -4.36 | 3.44 | -4.36 | -4.36 | -4.36 | -4.36 | -3.36 | -4.36 | -4.36 | -4.36 | -4.16
Cc1nc(-c2cn3c(n2)-c2ccc(-c4cnn(C(C)(C)C(N)=O)c4)cc2OCC3)n(C(C)C)n1 [Taselisib] (top concentration 1000 nM) | -0.3 | 11.1 | 10.9 | -0.4 | -4.3 | 22.1 | 11.9 | -0.9 | 6.3 | 0.7 | 6.9 | 1.2 | 2.8 | 4.2 | -4.3 | 3 | -4.3 | -4.3 | 5.7 | 1.5
O=C(Nc1cc(Oc2cc(F)c(NC(=O)C3(C(=O)Nc4ccc(F)cc4)CC3)cc2F)ccn1)C1CC1 [Altiratinib] (top concentration 10000 nM) | 0.34 | 1.14 | -2.16 | -4.86 | 3.74 | 7.24 | -0.36 | 3.74 | -0.16 | 3.84 | 3.74 | 13.9 | 0.04 | -2.56 | -4.86 | 0.24 | 3.24 | -2.56 | 3.84 | 1.64
Nc1ncn([C@@H]2O[C@H](CO)[C@@H](O)[C@H]2O)c(=O)n1 [Azacitidine] (top concentration 10000 nM) | 3.74 | 3.84 | 1.74 | 0.84 | 2.14 | 5.24 | 5.14 | 8.74 | 5.14 | 3.64 | 5.84 | 5.94 | 7.14 | 1.84 | 4.24 | 4.94 | -2.26 | -0.86 | 9.44 | 3.34
CC(C)c1c(C(=O)Nc2ccccc2)c(-c2ccccc2)c(-c2ccc(F)cc2)n1CC[C@@H](O)C[C@@H](O)CC(=O)O [Atorvastatin] (top concentration 10000 nM) | 0.7 | -1.9 | -1.8 | -2.5 | 1.9 | -1 | 4.2 | 6.6 | -3.7 | 1.2 | 0 | 4.2 | 2 | -3.7 | -3.7 | -2.1 | -1.6 | -3.7 | 1 | 2.9
CC1(C)CC[C@]2(NC(=O)C(C)(F)F)CC[C@]3(C)[C@H](C(=O)C=C4[C@@]5(C)C=C(C#N)C(=O)C(C)(C)[C@@H]5CC[C@]43C)[C@@H]2C1 [Omaveloxolone] (top concentration 10000 nM) | 1.88 | 3.58 | 3.38 | 1.08 | 3.98 | 6.28 | 4.88 | 8.68 | 1.88 | 3.48 | 0.58 | 1.28 | 4.88 | 4.58 | 10.1 | 2.18 | 1.48 | -0.52 | 2.58 | 0.88
Cn1cnc2c(F)c(Nc3ccc(Br)cc3F)c(C(=O)NOCCO)cc21 [Binimetinib] (top concentration 1000 nM) | -0.42 | 8.28 | 3.88 | -2.22 | -2.22 | -2.22 | 5.58 | 10.3 | -0.92 | -2.22 | 5.28 | -1.02 | -0.42 | -0.12 | 7.18 | -2.02 | 2.38 | -0.82 | 4.48 | -2.22
